# Like-named read-outs stand apart in the source and are kept apart here.
# Key:
# [1] = tested on: MRC5 human normal lung cells; test: MTT cytostatic/cytotoxic assay; type: cell-based; conditions: MRC5, 48 h treatment
# Method: (§1) The cell lines were obtained from the American Type of Culture collection (ATCC), except HuP-T3 which was kindly donated from University of Crete, School of Medicine, Greece, and were grown in different culture medium according to the instructions.
# (§2) For the determination of the cell viability, it was employed the MTT assay. Cells were plated in 96-well plate at a density of 1 × 10^4 cells/mL per well and maintained for 72 h at 37 °C in a 5% CO2 incubator and grown as monolayers. […] The viability of cultured cells was estimated by a (3-(4,5-imethylthiazol-2-yl)-2,5-diphenyltetrazolium bromide (MTT) metabolic assay as previously described.
# (§3) In brief, MTT (Sigma, St Louis, Missouri, USA) was dissolved in PBS in a concentration of 5 mg/mL, filter sterilized, and stored at 4 °C. Then, 50 μL of stock solution was added to each culture and incubated for 3 h at 37 °C. Formazan crystals were solubilized by DMSO (100 μL). Absorbance of the converted dye was measured at a wavelength of 540 nm on ELISA reader (VersaMax Microplate Reader Orleans, USA). […] Using seven absorbance measurements [time 24 h (Ct24), control growth 72 h (Ct72), and test growth in the presence of drug at five concentration levels (Tt72x)], the percentage of growth was calculated at each level of the drug concentrations. The percentage growth inhibition was calculated according to National Cancer Institute (NCI) as: {[(Tt72x) − (Ct24)]/[(Ct72) − (Ct24)]} × 100 for concentrations for which Tt72x>Ct24 and {(Tt72x) − (Ct24)]/(Ct24)} × 100 for concentrations for which Tt72x<Ct24. […] All experiments were carried out in triplicate. A significant difference was presumed to exist when p ≤ 0.05 (two tailed paired t test).
# [2] = tested on: PC3 prostate adenocarcinoma cells; test: MTT cytostatic/cytotoxic assay; type: cell-based, human; conditions: PC3, 48 h treatment
# Method: as §1, §2, §3
# [3] = tested on: Hup-T3 pancreatic adenocarcinoma cells; test: MTT cytostatic/cytotoxic assay; type: cell-based, human; conditions: Hup-T3, 48 h treatment
# Method: as §1, §2, §3
# [4] = Reduction of hydrogen peroxide; conditions: compound 0.1 mM, 20 min, phosphate buffer pH 7.4
# Method: In vitro antioxidant activity studies for 1–4 and their free ligands were performed in order to determine their ability to scavenge DPPH, and ABTS free radicals and to reduce H2O2 and was compared with the antioxidant capacity of reference compounds (NDGA, BHT, trolox and ascorbic acid).
# The absorbance was measured at 230 nm after 20 min. The antioxidant activity of the compounds was expressed as percent reduction of H2O2 (%H2O2). Ascorbic acid (or vitamin C) was used as an appropriate standard.
# [5] = tested on: DMS114 small cell lung cancer cells; test: MTT cytostatic/cytotoxic assay; type: cell-based, human; conditions: DMS114, 48 h treatment
# Method: as §1, §2
# as §3, with “Using seven absorbance measurements [time 24 h (Ct24), control growth 72 h (Ct72), and test growth in the presence of drug at five concentration levels (Tt72x)], the percentage of growth was calculated at each level of the drug concentrations.” left out
# [6] = tested on: SKOV-3 ovarian cancer cells; test: MTT cytostatic/cytotoxic assay; type: cell-based, human; conditions: SKOV-3, 48 h treatment
# Method: as §1, §2
# as §3, with “Using seven absorbance measurements [time 24 h (Ct24), control growth 72 h (Ct72), and test growth in the presence of drug at five concentration levels (Tt72x)], the percentage of growth was calculated at each level of the drug concentrations.” left out
# [7] = tested on: Bacillus cereus (B. cereus); test: In vitro antibacterial activity, progressive double dilutions, culture turbidity; type: cell-based
# Excerpt: (§4) The growth of bacteria was estimated by measuring the turbidity of the culture, as previously reported. […] The pH of the media was adjusted to 7.0.
# [8] = tested on: Escherichia coli (E. coli); test: as above; type: cell-based
# Excerpt: as §4
# [9] = tested on: Staphylococcus aureus (S. aureus); test: as above; type: cell-based
# Excerpt: as §4
# [10] = tested on: Bacillus subtilis (B. subtilis); test: as above; type: cell-based
# Excerpt: as §4
# [11] = tested on: EB–DNA conjugate (CT DNA); test: EB-DNA competitive binding, fluorescence quenching; design: species or system calf
# Excerpt: The potential EB-displacing ability of the compounds was studied by a stepwise addition of a compound’s solution into the EB–DNA solution. The resultant changes were monitored by recording the variation of fluorescence emission spectra with excitation wavelength at 540 nm. […] The Stern-Volmer constant (KSV, in M^−1) is used to evaluate the quenching efficiency for each compound according to the Stern-Volmer equation (Equation (2)):(2) Io/I=1+kqτ0[Q]=1+KSV[Q] where Io and I are the emission intensities of the EB–DNA solution in the absence and the presence of the quencher, respectively, [Q] is the concentration of the quencher, τo = the average lifetime of the emitting system without the quencher and kq = the quenching constant. KSV may be obtained from the Stern-Volmer plots by the slope of the diagram Io/I versus [Q]. Taking τo = 23 ns as the fluorescence lifetime of the EB–DNA system, the quenching constants (kq, in M^−1s^−1) of the compounds can be determined according to Equation (3):KSV = kqτo(3)
# [12] = cytocidal/cytotoxic, read-out: IC50 (the source's name)
# [13] = value in parentheses, mean ± SD, read-out: IC50
substance,measurement,setting,value
[Ag(mtdztH)(dppe)(NO3)]n [Compound 4],IC50,[1]; cytocidal/cytotoxic,4.4 ± 0.08 µM
same,GI50,[1]; growth inhibition,1.2 ± 0.05 µM
same,TGI,[1]; total growth inhibition,2.8±0.05 μΜ
same,LC50,[2]; [12],3.6 ± 0.05 µM
same,GI50,[2]; growth inhibition,0.6 ± 0.03 µM
same,TGI,[2]; total growth inhibition,1.6±0.03 μΜ
same,IC50,[3]; cytocidal/cytotoxic,3 ± 0.04 µM
same,GI50,[3]; growth inhibition,0.4 ± 0.02 µM
same,TGI,[3]; total growth inhibition,0.9±0.04 μΜ
same,H2O2 reducing ability (%H2O2),[4],35.17±1.96%
same,LC50,[5]; [12],3.1 ± 0.05 µM
same,GI50,[5]; growth inhibition,0.5 ± 0.04 µM
same,TGI,[5]; total growth inhibition,1.0±0.05 μΜ
same,LC50,[6]; [12],2.3 ± 0.05 µM
same,GI50,[6]; growth inhibition,1 ± 0.02 µM
same,TGI,[6]; total growth inhibition,2.0±0.03 μΜ
same,IC50,[7],5 µg/mL
same,MIC,[7],50 µg/mL
same,MIC,[7]; value in parentheses,45 μΜ
same,IC50,[7]; [13],4.6 ± 0.7 µM
same,IC50,[8],11 µg/mL
same,MIC,[8]; ampicillin reference against E.coli (BL21),higher than 100 μg/mL
same,MIC,[8]; value in parentheses,91 μΜ
same,IC50,[8]; [13],15.4 ± 2.4 µM
same,IC50,[9],8 µg/mL
same,MIC,[9],50 µg/mL
same,MIC,[9]; value in parentheses,45 μΜ
same,IC50,[9]; [13],7.3 ± 1.6 µM
same,IC50,[10],4.9 µg/mL
same,MIC,[10],30 µg/mL
same,MIC,[10]; value in parentheses,27 μΜ
same,IC50,[10]; [13],4.5 ± 0.8 µM
same,EB-DNA Stern–Volmer constant KSV,[11],5.68 (±0.20) × 10^4 M^−1
same,EB–DNA fluorescence quenching ΔI/Iο,[11]; λex 540 nm,27.6%

# — PMC9823356, “Inhibition of Cancer Cell Proliferation and Bacterial Growth by Silver(I) Complexes Bearing a CH3-Substituted Thiadiazole-Based Thioamide” (Molecules, 2023)
